The values that follow come from paper PMC9562282, “Reaction of Thiosulfate Dehydrogenase with a Substrate Mimic Induces Dissociation of the Cysteine Heme Ligand Giving Insights into the Mechanism of Oxidative Catalysis” (Journal of the American Chemical Society, 2022).

This test has as its target T1, CjTsdA (Campylobacter jejuni thiosulfate dehydrogenase) (Campylobacter jejuni, UniProt A0A5Y8VWW6).
T1 construct: diheme c-type cytochrome (two covalent c hemes), mass 37,202 Da by LCMS with unmodified Cys138; host and tags only in supplement
The test can be described thus: LCMS of intact protein (supported by absorbance and MCD spectroscopy). The test is classed as binding. The note with it: covalent; cysteinyl-138 sulfonate adduct; 1.5 mM sulfite, anaerobic 50 mM HEPES, 50 mM NaCl, pH 7, 20 °C; ferricyanide as oxidant.

With `O=S(O)O` [sulfite], the “LCMS of intact protein (supported by absorbance and MCD spectroscopy)” value is listed as “sulfite is shown to bind to the active site of CjTsdA”.
